{"source": "patent US20180296630A1", "about": "“METHODS AND COMPOSITIONS FOR PREVENTING OR TREATING OPHTHALMIC CONDITIONS” (Stealth BioTherapeutics Corp, priority 2012, published 2018)", "key": {"[1]": {"system": "human retinal epithelial cells (HREC)", "assay": "Mitochondrial membrane potential of high-glucose HRECs (JC-1, flow cytometry)", "type": "cell-based", "conditions": "100 nM co-treatment with high glucose; 24 or 48 hours", "procedure": "Assessment of D-Arg-2′,6′-Dmt-Lys-Phe-NH2 as a protectant against mitochondrial potential loss of HRECs treated with high-glucose was examined. To determine if a mitochondrial-mediated pathway was important in the protective effect of D-Arg-2′,6′-Dmt-Lys-Phe-NH2 against high glucose-induced cell death, ΔΨm was measured by flow cytometry. After treating the HRECs with high-glucose without D-Arg-2′,6′-Dmt-Lys-Phe-NH2 for 24 or 48 hours, a rapid loss of mitochondrial membrane potential was detected by JC-1 fluorescent probe as indicated by a significant decrease in the ratio of red to green fluorescence observed in the high glucose group."}, "[2]": {"system": "HFD/STZ diabetic rats", "assay": "Lens opacity (cataract) in HFD/STZ rat model", "type": "in vivo, Sprague-Dawley rat", "conditions": "for Percentage of opacity / Percentage of severe opacity / Turbidity degree + (mildly opaque), number in group / Turbidity degree ++ (opaque), number in group / Turbidity degree +++ (moderately opaque), number in group / Turbidity degree ++++ (severely opaque), number in group / Turbidity degree − (transparent), number in group: HFD/STZ rat model", "procedure": "(§1) A rat model of diabetes was established by combination of 6-week HFD and low dose of STZ (30 mg/kg) injection or a single high dose of STZ (65 mg/kg) in SD rats. See generally, K. Srinivasan, B. Viswanad, Lydia Asrat, C. L. Kaul and P. Ramarao, Combination of high-fat diet-fed and low-dose streptozotocin-treated rat: A model for type 2 diabetes and pharmacological screening, Pharmacological Research, 52(4): 313-320, 2005. Rats of the same batch fed with normal chow (NRC) were used as a control."}, "[3]": {"system": "STZ diabetic rats", "assay": "Lens opacity (cataract) in STZ rat model", "type": "in vivo, Sprague-Dawley rat", "conditions": "10 mg (Table 11: 10 mg/kg s.c.)", "procedure": "as §1"}, "[4]": {"system": "STZ and HFD/STZ diabetic rats", "assay": "Retinal microvessel changes in diabetic SD rats", "type": "in vivo, Sprague-Dawley rat", "conditions": "STZ or HFD/STZ rats", "procedure": "as §1\nThe effect of the aromatic-cationic peptides on retinal microvessels in the SD rat model was investigated (FIGS. 11-12). Administration of D-Arg-2′,6′-Dmt-Lys-Phe-NH2 reduced retinal microvasular changes observed in STZ or HFD/STZ rats."}, "[5]": {"system": "HTM cells", "assay": "TMRM fluorescence (mitochondrial membrane potential), acute H2O2 injury, FACS, HTM cells", "type": "cell-based, human", "conditions": "n=4", "description": "Methods to measure mitochondrial membrane potential using TMRM useful in the studies of the present invention have been described by Andrea Rasola and Massimo Geuna, A flow cytometry assay simultaneously detects independent apoptotic parameters, Cytometry 45:151-157, 2001; Mitoprobe™ JC-1 Kit for Flow Cytometry, Molecular Probes, Invitrogen, USA.\nThe mitochondrial membrane potential (Δψm) of HTM and GTM cells was investigated when those cells were exposed to hydrogen peroxide prior to administration of D-Arg-2′,6′-Dmt-Lys-Phe-NH2. First, the mitochondrial membrane potential was measured using confocal microscopy of cells labeled with tetramethylrhodamine methyl ester (TMRM, 500 nM×30 min) (FIG. 15). The mitochondrial membrane potential was also measured using flow cytometry (FIGS. 16-17) by labeling cells with the mitochondrion-selective probe tetramethylrhodamine methyl ester (TMRM, 500 nM×30 min).\nThe effects of D-Arg-2′,6′-Dmt-Lys-Phe-NH2 at mitigating acute oxidative injury in GTM and HTM cells was investigated. […] The percentage of fluorescence intensity compared to GTM control in H2O2, D-Arg-2′,6′-Dmt-Lys-Phe-NH2 10^−6M, D-Arg-2′,6′-Dmt-Lys-Phe-NH2 10^−7M, D-Arg-2′,6′-Dmt-Lys-Phe-NH2 10^−8M were 35.2±2.12%, 56.2±4.04%, 50.3±4.46%, 47.5±2.82% respectively, n=4; the HTM groups were 37.4±0.725%, 57.7±1.80%, 50.6±3.06%, 49.4±2.27% respectively, n=4. ** means P<0.01 compared to GTM H2O2 group; * means P<0.05 compared to GTM H2O2 group; ▴ ▴ ▴ means P<0.001 compared to HTM H2O2 group."}, "[6]": {"system": "661W cells", "assay": "Mitochondrial viability of 661W cells exposed to tBHP (JC-1 assay)", "type": "cell-based, mouse", "conditions": "100 nmol/L", "procedure": "The potential of D-Arg-2′,6′-Dmt-Lys-Phe-NH2 (D-Arg-2′,6′-Dmt-Lys-Phe-NH2) to protect against loss of mitochondrial viability induced by tBHP, 100 nmol/L D-Arg-2′,6′-Dmt-Lys-Phe-NH2 was administered to the cultures of 661w cells."}, "[7]": {"system": "mouse model of retina degeneration", "assay": "Mouse model of retina degeneration (ONL thickness, PNA cone staining)", "type": "in vivo", "conditions": "compared to untreated mice", "description": "CNV is induced in the eye with laser burns. (see Example 6). Mouse models of retinal degeneration have been investigated for many years in the hope of understanding the causes of photoreceptor cell death. Naturally occurring mouse mutants that manifest degeneration of photoreceptors in the retina with preservation of all other retinal cell types have been found: retinal degeneration (formerly rd, identical with rodless retina, r, now Pde6b rd1); Purkinje cell degeneration (pcd); nervous (nr); retinal degeneration slow (rds, now Prph Rd2); retinal degeneration 3 (rd3); motor neuron degeneration (mnd); retinal degeneration 4 (Rd4); retinal degeneration 5 (rd5); vitiligo (vir, now Mitf mi-vit); retinal degeneration 6 (rd6); retinal degeneration 7 (rd7); neuronal ceroid lipofuscinosis (nclf); retinal degeneration 8 (rd8); retinal degeneration 9 (Rd9); retinal degeneration 10 (rd10); and cone photoreceptor function loss (cpfl1).\nFIG. 28 is a series of micrographs showing the thickness of the retinal outer nuclear layer (ONL) in a mouse model of retina degeneration in control and D-Arg-2′,6′-Dmt-Lys-Phe-NH2-treated mice."}}, "data": [{"substance": "D-Arg-2′,6′-Dmt-Lys-Phe-NH2", "values": [{"measurement": "Δψm (ratio of red to green JC-1 fluorescence)", "setting": "[1]", "value": "remained virtually unchanged"}, {"measurement": "cataract formation in the lenses of diabetic rats", "setting": "[2]; HFD/STZ and STZ models (FIGS. 6 and 7, Tables 13 and 14)", "value": "prevention or reversal of cataract formation"}, {"measurement": "Percentage of opacity", "setting": "[2]; 1 mg (Table 9: 1 mg/kg s.c.)", "value": 67.7, "unit": "%"}, {"measurement": "Percentage of severe opacity", "setting": "[2]; 1 mg (Table 9: 1 mg/kg s.c.)", "value": 0, "unit": "%"}, {"measurement": "Turbidity degree + (mildly opaque), number in group", "setting": "[2]; 1 mg (Table 9: 1 mg/kg s.c.)", "value": 1}, {"measurement": "Turbidity degree ++ (opaque), number in group", "setting": "[2]; 1 mg (Table 9: 1 mg/kg s.c.)", "value": 1}, {"measurement": "Turbidity degree +++ (moderately opaque), number in group", "setting": "[2]; 1 mg (Table 9: 1 mg/kg s.c.)", "value": 0}, {"measurement": "Turbidity degree ++++ (severely opaque), number in group", "setting": "[2]; 1 mg (Table 9: 1 mg/kg s.c.)", "value": 0}, {"measurement": "Turbidity degree − (transparent), number in group", "setting": "[2]; 1 mg (Table 9: 1 mg/kg s.c.)", "value": 1}, {"measurement": "Percentage of opacity", "setting": "[2]; 3 mg (Table 9: 3 mg/kg s.c.)", "value": 20.0, "unit": "%"}, {"measurement": "Percentage of severe opacity", "setting": "[2]; 3 mg (Table 9: 3 mg/kg s.c.)", "value": 20.0, "unit": "%"}, {"measurement": "Turbidity degree + (mildly opaque), number in group", "setting": "[2]; 3 mg (Table 9: 3 mg/kg s.c.)", "value": 1}, {"measurement": "Turbidity degree ++ (opaque), number in group", "setting": "[2]; 3 mg (Table 9: 3 mg/kg s.c.)", "value": 0}, {"measurement": "Turbidity degree +++ (moderately opaque), number in group", "setting": "[2]; 3 mg (Table 9: 3 mg/kg s.c.)", "value": 0}, {"measurement": "Turbidity degree ++++ (severely opaque), number in group", "setting": "[2]; 3 mg (Table 9: 3 mg/kg s.c.)", "value": 1}, {"measurement": "Turbidity degree − (transparent), number in group", "setting": "[2]; 3 mg (Table 9: 3 mg/kg s.c.)", "value": 3}, {"measurement": "Percentage of opacity", "setting": "[2]; 10 mg (Table 9: 10 mg/kg s.c.)", "value": 14.3, "unit": "%"}, {"measurement": "Percentage of severe opacity", "setting": "[2]; 10 mg (Table 9: 10 mg/kg s.c.)", "value": 0, "unit": "%"}, {"measurement": "Turbidity degree + (mildly opaque), number in group", "setting": "[2]; 10 mg (Table 9: 10 mg/kg s.c.)", "value": 1}, {"measurement": "Turbidity degree ++ (opaque), number in group", "setting": "[2]; 10 mg (Table 9: 10 mg/kg s.c.)", "value": 0}, {"measurement": "Turbidity degree +++ (moderately opaque), number in group", "setting": "[2]; 10 mg (Table 9: 10 mg/kg s.c.)", "value": 0}, {"measurement": "Turbidity degree ++++ (severely opaque), number in group", "setting": "[2]; 10 mg (Table 9: 10 mg/kg s.c.)", "value": 0}, {"measurement": "Turbidity degree − (transparent), number in group", "setting": "[2]; 10 mg (Table 9: 10 mg/kg s.c.)", "value": 6}, {"measurement": "Opacity degree ++++, number in group", "setting": "[3]", "value": 1}, {"measurement": "Opacity degree +++, number in group", "setting": "[3]", "value": 0}, {"measurement": "Opacity degree ++, number in group", "setting": "[3]", "value": 0}, {"measurement": "Opacity degree +, number in group", "setting": "[3]", "value": 2}, {"measurement": "Opacity degree −, number in group", "setting": "[3]", "value": 2}, {"measurement": "Percentage of opacity", "setting": "[3]", "value": 60.0, "unit": "%"}, {"measurement": "Percentage of severe opacity", "setting": "[3]", "value": 20.0, "unit": "%"}, {"measurement": "retinal microvascular changes", "setting": "[4]", "value": "reduced"}, {"measurement": "percentage of TMRM fluorescence intensity compared to control", "setting": "[5]; 10^−6M", "value": "57.7±1.80", "unit": "%"}, {"measurement": "percentage of TMRM fluorescence intensity compared to control", "setting": "[5]; 10^−7M", "value": "50.6±3.06", "unit": "%"}, {"measurement": "percentage of TMRM fluorescence intensity compared to control", "setting": "[5]; 10^−8M", "value": "49.4±2.27", "unit": "%"}, {"measurement": "mitochondrial viability (JC-1 assay)", "setting": "[6]", "value": "significantly enhanced"}, {"measurement": "cone cell density (PNA-stained retinal flat mounts)", "setting": "[7]", "value": "greater"}, {"measurement": "rows of cells in the retinal outer nuclear layer (ONL)", "setting": "[7]", "value": "retained a greater number of rows of cells"}]}]}
